Our source for the IC50 values is patent US20240116985A1, “STAPLED PEPTIDES AND METHODS THEREOF” (priority 2020, published 2024).

SMILES strings stand for the structures.

The IC50 is the point on the concentration scale where inhibition reaches its midpoint.

This test addresses T1, full-length beta-Catenin (Uniprot ID P35222) (Homo sapiens, UniProt P35222).
T1 construct: 10 nM full-length beta-Catenin (Uniprot ID P35222)
T1 sequence (P35222 1-781): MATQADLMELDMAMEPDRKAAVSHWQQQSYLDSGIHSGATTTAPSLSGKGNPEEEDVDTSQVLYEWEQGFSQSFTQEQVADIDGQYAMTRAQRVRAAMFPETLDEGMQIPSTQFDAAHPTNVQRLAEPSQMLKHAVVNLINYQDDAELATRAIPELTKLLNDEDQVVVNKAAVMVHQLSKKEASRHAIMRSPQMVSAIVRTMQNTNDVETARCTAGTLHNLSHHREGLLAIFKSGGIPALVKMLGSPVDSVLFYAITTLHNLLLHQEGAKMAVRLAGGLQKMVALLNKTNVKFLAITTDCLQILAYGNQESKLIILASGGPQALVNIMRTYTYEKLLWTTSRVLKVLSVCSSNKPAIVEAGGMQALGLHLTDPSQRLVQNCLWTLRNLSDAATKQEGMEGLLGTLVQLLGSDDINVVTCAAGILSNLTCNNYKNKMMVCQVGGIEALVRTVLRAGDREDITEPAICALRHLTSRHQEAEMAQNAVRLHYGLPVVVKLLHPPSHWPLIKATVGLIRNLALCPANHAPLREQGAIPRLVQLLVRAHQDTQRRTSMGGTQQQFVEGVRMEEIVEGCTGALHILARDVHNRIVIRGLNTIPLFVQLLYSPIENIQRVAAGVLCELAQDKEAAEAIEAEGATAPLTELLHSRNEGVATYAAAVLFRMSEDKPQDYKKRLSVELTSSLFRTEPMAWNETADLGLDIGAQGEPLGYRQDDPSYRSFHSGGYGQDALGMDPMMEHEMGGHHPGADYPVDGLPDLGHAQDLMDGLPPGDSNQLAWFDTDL
The test can be described thus: Fluorescence polarization IC50 (beta-catenin / 5FAM-TCF4 10-53 competition). In kind it is binding. Conditions: fluorescence polarization; read-out: beta-Catenin FP IC50.
In the case of `CC(=O)N1CCC[C@]12CC=CCCCC1(CCCC=CCCCOC(=O)N3CC[C@@](C(=O)N[C@@H](Cc4ccccc4Cl)C(=O)N[C@@H](Cc4csc5ccccc45)C(=O)N[C@@H](CCC(N)=O)C(N)=O)(C3)NC(=O)[C@H](CC(N)=O)NC(=O)[C@H](Cc3ccccc3)NC(=O)[C@H](C)NC(=O)[C@H](C)NC(=O)[C@H]([C@@H](C)O)NC(=O)[C@H](CC(N)=O)NC1=O)NC(=O)[C@H](CC(C)(C)C)NC(=O)[C@H](CC(=O)O)NC2=O` (stereo partly drawn) [I-1998, Ac-PL3-Asp-Npg-B5-Asn-Thr-Ala-Ala-Phe-Asn-PyrS2-2C1F-BztA-Gln-NH2], the IC50 was found to be 732 nM.
Take `CC(=O)N1CCC[C@]12CC=CCCCC1(CCCC=CCCCOC(=O)N3CC[C@@](C(=O)N[C@@H](Cc4ccccc4Cl)C(=O)N[C@@H](Cc4csc5ccccc45)C(=O)N[C@@H](CCC(N)=O)C(N)=O)(C3)NC(=O)[C@H](CC(N)=O)NC(=O)[C@H](Cc3ccccc3)NC(=O)[C@H](C)NC(=O)[C@H](C)NC(=O)[C@H]([C@@H](C)O)NC(=O)[C@H](CC(N)=O)NC1=O)NC(=O)[C@H](CC(C)(C)C)NC(=O)[C@H](CC(=O)O)NC2=O` (stereo partly drawn) [I-1999, Ac-PL3-Asp-Npg-B5-Asn-Thr-Ala-Ala-Phe-Asn-PyrS2-2C1F-BztA-Gln-NH2]: the IC50 came to 4940 nM.
In the case of `CC(=O)N1CCC[C@]12CC=CCCCC1(CCCC=CCCCOC(=O)N3CC[C@@](C(=O)N[C@@H](Cc4cccc(Cl)c4)C(=O)N[C@@H](Cc4csc5ccccc45)C(=O)N[C@@H](CCC(N)=O)C(N)=O)(C3)NC(=O)[C@H](CC(N)=O)NC(=O)[C@H](Cc3ccccc3)NC(=O)[C@H](C)NC(=O)[C@H](C)NC(=O)[C@H]([C@@H](C)O)NC(=O)[C@H](CC(N)=O)NC1=O)NC(=O)[C@H](CC(C)(C)C)NC(=O)[C@H](CC(=O)O)NC2=O` (stereo partly drawn) [I-2000, Ac-PL3-Asp-Npg-B5-Asn-Thr-Ala-Ala-Phe-Asn-PyrS2-3C1F-BztA-Gln-NH2], the concentration for half-maximal inhibition (IC50) came to 6560 nM.
`CC(=O)N1CCC[C@]12CC=CCCCC1(CCCC=CCCCOC(=O)N3CC[C@@](C(=O)N[C@@H](Cc4cccc(Cl)c4)C(=O)N[C@@H](Cc4csc5ccccc45)C(=O)N[C@@H](CCC(N)=O)C(N)=O)(C3)NC(=O)[C@H](CC(N)=O)NC(=O)[C@H](Cc3ccccc3)NC(=O)[C@H](C)NC(=O)[C@H](C)NC(=O)[C@H]([C@@H](C)O)NC(=O)[C@H](CC(N)=O)NC1=O)NC(=O)[C@H](CC(C)(C)C)NC(=O)[C@H](CC(=O)O)NC2=O` (stereo partly drawn) [I-2001, Ac-PL3-Asp-Npg-B5-Asn-Thr-Ala-Ala-Phe-Asn-PyrS2-3C1F-BztA-Gln-NH2]: the half-inhibitory concentration (IC50) was determined as 4450 nM.
As for `CC(=O)N1CCC[C@]12CC=CCCCC1(CCCC=CCCCOC(=O)N3CC[C@@](C(=O)N[C@@H](Cc4ccsc4)C(=O)N[C@@H](Cc4csc5ccccc45)C(=O)N[C@@H](CCC(N)=O)C(N)=O)(C3)NC(=O)[C@H](CC(N)=O)NC(=O)[C@H](Cc3ccccc3)NC(=O)[C@H](C)NC(=O)[C@H](C)NC(=O)[C@H]([C@@H](C)O)NC(=O)[C@H](CC(N)=O)NC1=O)NC(=O)[C@H](C)NC(=O)[C@H](CC(=O)O)NC2=O` (stereo partly drawn) [I-2002, Ac-PL3-Asp-Ala-B5-Asn-Thr-Ala-Ala-Phe-Asn-PyrS2-3Thi-BztA-Gln-NH2], the IC50 stood at 612 nM.
For `CC(=O)N1CCC[C@]12CC=CCCCC1(CCCC=CCCCOC(=O)N3CC[C@@](C(=O)N[C@@H](Cc4ccsc4)C(=O)N[C@@H](Cc4csc5ccccc45)C(=O)N[C@@H](CCC(N)=O)C(N)=O)(C3)NC(=O)[C@H](CC(N)=O)NC(=O)[C@H](Cc3ccccc3)NC(=O)[C@H](C)NC(=O)[C@H](C)NC(=O)[C@H]([C@@H](C)O)NC(=O)[C@H](CC(N)=O)NC1=O)NC(=O)[C@H](C)NC(=O)[C@H](CC(=O)O)NC2=O` (stereo partly drawn) [I-2003, Ac-PL3-Asp-Ala-B5-Asn-Thr-Ala-Ala-Phe-Asn-PyrS2-3Thi-BztA-Gln-NH2], the IC50 amounted to 1020 nM.
As to `CC(=O)N1CCC[C@]12CC=CCCCC1(CCCC=CCCCOC(=O)N3CC[C@@](C(=O)N[C@@H](Cc4ccsc4)C(=O)N[C@@H](Cc4csc5ccccc45)C(=O)N[C@@H](CCC(N)=O)C(N)=O)(C3)NC(=O)[C@H](CC(N)=O)NC(=O)[C@H](Cc3ccccc3)NC(=O)[C@H](C)NC(=O)[C@H](CCCCNC(C)C)NC(=O)[C@H]([C@@H](C)O)NC(=O)[C@H](CC(N)=O)NC1=O)NC(=O)[C@H](CC(C)(C)C)NC(=O)[C@H](CC(=O)O)NC2=O` (stereo partly drawn) [I-2004, Ac-PL3-Asp-Npg-B5-Asn-Thr-iPrLys-Ala-Phe-Asn-PyrS2-3Thi-BztA-Gln-NH2], the IC50 came out at 227 nM.
With `CC(=O)N1CCC[C@]12CC=CCCCC1(CCCC=CCCCOC(=O)N3CC[C@@](C(=O)N[C@@H](Cc4ccsc4)C(=O)N[C@@H](Cc4csc5ccccc45)C(=O)N[C@@H](CCC(N)=O)C(N)=O)(C3)NC(=O)[C@H](CC(N)=O)NC(=O)[C@H](Cc3ccccc3)NC(=O)[C@H](C)NC(=O)[C@H](CCCCNC(C)C)NC(=O)[C@H]([C@@H](C)O)NC(=O)[C@H](CC(N)=O)NC1=O)NC(=O)[C@H](CC(C)(C)C)NC(=O)[C@H](CC(=O)O)NC2=O` (stereo partly drawn) [I-2005, Ac-PL3-Asp-Npg-B5-Asn-Thr-iPrLys-Ala-Phe-Asn-PyrS2-3Thi-BztA-Gln-NH2], the IC50 was 357 nM.
For `CC(=O)N1CCC[C@]12CC=CCCCC1(CCCC=CCCCOC(=O)N3CC[C@@](C(=O)N[C@@H](Cc4ccsc4)C(=O)N[C@@H](Cc4csc5ccccc45)C(=O)N[C@@H](CCC(N)=O)C(N)=O)(C3)NC(=O)[C@H](CC(N)=O)NC(=O)[C@H](Cc3ccccc3)NC(=O)[C@H](CCCCNC(C)C)NC(=O)[C@H](C)NC(=O)[C@H]([C@@H](C)O)NC(=O)[C@H](CC(N)=O)NC1=O)NC(=O)[C@H](CC(C)(C)C)NC(=O)[C@H](CC(=O)O)NC2=O` (stereo partly drawn) [I-2006, Ac-PL3-Asp-Npg-B5-Asn-Thr-Ala-iPrLys-Phe-Asn-PyrS2-3Thi-BztA-Gln-NH2], the IC50 came out at 285 nM.
Then `CC(=O)N1CCC[C@]12CC=CCCCC1(CCCC=CCCCOC(=O)N3CC[C@@](C(=O)N[C@@H](Cc4ccsc4)C(=O)N[C@@H](Cc4csc5ccccc45)C(=O)N[C@@H](CCC(N)=O)C(N)=O)(C3)NC(=O)[C@H](CC(N)=O)NC(=O)[C@H](CCc3ccccc3)NC(=O)[C@H](C)NC(=O)[C@H](C)NC(=O)[C@H]([C@@H](C)O)NC(=O)[C@H](CC(N)=O)NC1=O)NC(=O)[C@H](CC(C)(C)C)NC(=O)[C@H](CC(=O)O)NC2=O` (stereo partly drawn) [I-2008, Ac-PL3-Asp-Npg-B5-Asn-Thr-Ala-Ala-hPhe-Asn-PyrS2-3Thi-BztA-Gln-NH2], with 8830 nM.
As to `CC(=O)N1CCC[C@]12CC=CCCCC1(CCCC=CCCCOC(=O)N3CC[C@@](C(=O)N[C@@H](Cc4ccsc4)C(=O)N[C@@H](Cc4csc5ccccc45)C(=O)N[C@@H](CCC(N)=O)C(N)=O)(C3)NC(=O)[C@H](CC(N)=O)NC(=O)[C@H](Cc3cccc(C(F)(F)F)c3)NC(=O)[C@H](C)NC(=O)[C@H](C)NC(=O)[C@H]([C@@H](C)O)NC(=O)[C@H](CC(N)=O)NC1=O)NC(=O)[C@H](CC(C)(C)C)NC(=O)[C@H](CC(=O)O)NC2=O` (stereo partly drawn) [I-2009, Ac-PL3-Asp-Npg-B5-Asn-Thr-Ala-Ala-3F3MeF-Asn-PyrS2-3Thi-BztA-Gln-NH2], the IC50 came to 1480 nM.
Consider `CC(=O)N1CCC[C@]12CC=CCCCC1(CCCC=CCCCOC(=O)N3CC[C@@](C(=O)N[C@@H](Cc4ccsc4)C(=O)N[C@@H](Cc4csc5ccccc45)C(=O)N[C@@H](CCC(N)=O)C(N)=O)(C3)NC(=O)[C@H](CC(N)=O)NC(=O)[C@H](Cc3cccc(C(F)(F)F)c3)NC(=O)[C@H](C)NC(=O)[C@H](C)NC(=O)[C@H]([C@@H](C)O)NC(=O)[C@H](CC(N)=O)NC1=O)NC(=O)[C@H](CC(C)(C)C)NC(=O)[C@H](CC(=O)O)NC2=O` (stereo partly drawn) [I-2010, Ac-PL3-Asp-Npg-B5-Asn-Thr-Ala-Ala-3F3MeF-Asn-PyrS2-3Thi-BztA-Gln-NH2], for which the IC50 worked out at 1970 nM.
As to `CC(=O)N1CCC[C@]12CC=CCCCC1(CCCC=CCCCOC(=O)N3CC[C@@](C(=O)N[C@@H](Cc4ccsc4)C(=O)N[C@@H](Cc4csc5ccccc45)C(=O)N[C@@H](CCC(N)=O)C(N)=O)(C3)NC(=O)[C@H](CC(N)=O)NC(=O)[C@H](Cc3cccc(Cl)c3)NC(=O)[C@H](C)NC(=O)[C@H](C)NC(=O)[C@H]([C@@H](C)O)NC(=O)[C@H](CC(N)=O)NC1=O)NC(=O)[C@H](CC(C)(C)C)NC(=O)[C@H](CC(=O)O)NC2=O` (stereo partly drawn) [I-2013, Ac-PL3-Asp-Npg-B5-Asn-Thr-Ala-Ala-3C1F-Asn-PyrS2-3Thi-BztA-Gln-NH2], the half-inhibitory concentration (IC50) amounted to 661 nM.
As to `CC(=O)N1CCC[C@]12CC=CCCCC1(CCCC=CCCCOC(=O)N3CC[C@@](C(=O)N[C@@H](Cc4ccsc4)C(=O)N[C@@H](Cc4csc5ccccc45)C(=O)N[C@@H](CCC(N)=O)C(N)=O)(C3)NC(=O)[C@H](CC(N)=O)NC(=O)[C@H](Cc3cccc(Cl)c3)NC(=O)[C@H](C)NC(=O)[C@H](C)NC(=O)[C@H]([C@@H](C)O)NC(=O)[C@H](CC(N)=O)NC1=O)NC(=O)[C@H](CC(C)(C)C)NC(=O)[C@H](CC(=O)O)NC2=O` (stereo partly drawn) [I-2014, Ac-PL3-Asp-Npg-B5-Asn-Thr-Ala-Ala-3C1F-Asn-PyrS2-3Thi-BztA-Gln-NH2], the IC50 is 1180 nM.
